For this series the following is noted: a range is the spread between reports.

Consider 137 molecules from a melting point compilation (Tetko et al.).

A word on the melting point: it is the temperature, or range, at which the solid turns liquid.

Consider `N#CCc1ccccc1[N+](=O)[O-]`, for which the melting point was 82 to 84 °C.

`COc1ccccc1OC(=O)Oc1ccccc1OC` came in with a melting point of 87 to 89 °C.

Molecule `O=Cc1cc2c(cc1[N+](=O)[O-])OCO2` had a melting point of 93.5 to 95 °C. Then `Cc1ccc(N)cc1F`, with 31 to 33 °C; and `O=[N+]([O-])c1ccc2nc[nH]c2c1`, with 208 °C.

Regarding `COc1ccc(C2CC(=O)c3c(O)cc(O)cc3O2)cc1O` (configuration not stated), the melting point is 228 to 230 °C. Then `CC(=O)c1ccc(C#N)cc1`, with 57 to 59 °C; and `O=C(c1ccccc1)C(Cl)c1ccccc1` (configuration not stated), with 67 to 68.5 °C; and `Oc1ccc(C(c2ccc(O)cc2)(C(F)(F)F)C(F)(F)F)cc1`, with 160 to 162 °C. Then `O=C1CC(=O)NC(=S)N1`, with 234 to 235 °C; and `OCC(F)(F)C(F)(F)C(F)(F)CO`, with 78 to 79.5 °C. Then `OCCNCCO`, with 28 to 29 °C; and `O=[N+]([O-])c1ccc(O)c(Cl)c1`, with 106 to 110 °C. Molecule `CCOC(=O)c1ccccc1[N+](=O)[O-]` returned a melting point of 28 to 30 °C. Then `O=Nc1ccccc1`, with 65 to 68.5 °C.

As to `CCCCCCCCCCO`, the melting point fell in the range of 6 to 7 °C. For `Cc1ccc2oc(=O)ccc2c1` the value was 76 to 76.5 °C; for `c1ccc2c(c1)OCCOCCOc1ccccc1OCCOCCO2`, 162 to 163 °C; for `Nc1cccc2c1C(=O)c1ccccc1C2=O`, 250 to 254 °C. Then `C=Cc1ccc(-c2ccccc2)cc1`, with 116 to 119 °C.

Regarding `CCCCC1CCCCC1`, the melting point is -78 to -74.7 °C. Then `O=Cc1ccc(Cl)cc1Cl`, with 71 to 73 °C; and `CC(=O)Oc1ccccc1[N+](=O)[O-]`, with 40 to 40.5 °C; and `O=C(NNc1ccccc1)NNc1ccccc1`, with 170 to 173 °C. In the case of `CCCCCCCCCCCCCCCC(C)C`, the melting point was in the range of 5.7 to 6 °C.

With `O=P(O)(c1ccccc1)c1ccccc1`, the melting point was 194 to 195 °C. Then `CC(C(C)(C)C)C(C)(C)C`, with -39 to -38.7 °C.

With `OCC1OC(OC2(CO)OC(CO)C(O)C2O)C(O)C(O)C1O` (configuration not stated), the melting point lay within 186 to 188 °C.

In turn, `O=C(O)CCI` returned a melting point of 81.5 to 82 °C. Then `NC(=O)Oc1ccccc1`, with 150 to 151 °C.

With `Cc1ncc([N+](=O)[O-])n1C`, the melting point was 137 to 140 °C.

Molecule `O=C(O)CCc1c[nH]c2ccccc12` yielded a melting point of 134 °C. Then `CC(C)O`, with -90 to -88 °C; and `c1ccc(-c2ccc(-c3ccccc3)o2)cc1`, with 88 to 91 °C. Then `O=[N+]([O-])c1cc(Cl)c(Cl)c(Cl)c1`, with 70 to 72.5 °C; and `SCc1ccccc1`, with -30 to -29 °C.

`CC=C(C)CCC`: the melting point is -119 to -118 °C.

For `Nc1ccc(Cl)cc1C(=O)c1ccccc1`, the melting point was 96 to 99 °C. `CC(Oc1ccccc1)C(=O)O` (configuration not stated) yielded a melting point of 118 °C.

Molecule `Clc1ccc(Br)c(Cl)c1` showed a melting point of 26 to 27 °C. As to `O=c1c(O)c(-c2ccccc2)oc2ccccc12`, the melting point lay in the range of 170 to 172 °C. For `C/C=C\CCC` the value was -141 °C; for `COC(C(=O)c1ccccc1)c1ccccc1` (configuration not stated), 47 to 49.5 °C. Molecule `O=C(O)[C@@H]1CCCN1C(=O)OCc1ccccc1` yielded a melting point of 76 to 77 °C. Then `C=Cc1ccccc1C`, with -69 to -68.5 °C; and `Cc1c(Br)cc(Br)cc1Br`, with 69 to 70 °C; and `Brc1ccc(I)cc1`, with 91 to 92 °C. Then `C#CCCC(=O)O`, with 56 to 57.7 °C; and `CC(C)(O)c1ccccc1`, with 32 to 36 °C; and `COc1cc(C#N)ccc1O`, with 86 to 87 °C. Then `FC(F)(F)C(F)(F)F`, with -101 to -100 °C; and `CCCCC(=O)c1ccccc1`, with -9.4 to -9 °C.

Regarding `O=C1OC(=O)c2ccccc21`, the melting point fell in the range of 131 to 132 °C. Take `c1ccc2ncccc2c1`: the melting point was -15 to -14.8 °C.

Take `O=C(Cl)CCC(=O)Cl`: the melting point fell in the range of 17 to 20 °C. For `CCOC(=O)C(C)C` the value was -88.2 to -88 °C; for `CCCCCCCCCCCCCCCCCCN`, 52.9 to 56 °C. Consider `NCCS`, for which the melting point is 96 to 98 °C. Then `S=c1nc[nH]c2nc[nH]c12`, with 313 to 314 °C. Then `OC1c2ccccc2Oc2ccccc21`, with 123 to 128 °C. `CC(=O)c1cc2ccccc2o1` registered a melting point of 71 to 76 °C.

Take `CNC(C)=O`: the melting point is 27 to 28 °C. Molecule `c1ccc(-c2cnc(-c3ccc(-c4ncc(-c5ccccc5)o4)cc3)o2)cc1` yielded a melting point of 242 to 245 °C. In the case of `C=Cc1ccc(F)cc1`, the melting point was -36 to -34.5 °C. Then `CCn1ccc(NS(=O)(=O)c2ccc(N)cc2)nc1=O`, with 166 to 167 °C. Then `OCc1ccccc1Br`, with 80 to 81 °C; and `CCOC(=O)c1ccc([N+](=O)[O-])o1`, with 100 to 101 °C. For `COC` the value was -142 to -138 °C; for `O=C(O)c1ccccc1-c1c2cc(Br)c(=O)c(Br)c-2oc2c(Br)c(O)c(Br)cc12`, 296 to 300 °C. With `CCCCCI`, the melting point is -86 to -85.6 °C. Then `c1ccc(P(CCCP(c2ccccc2)c2ccccc2)c2ccccc2)cc1`, with 60 to 61 °C. For `Cc1ccc(C)c(O)c1` the value was 74 to 76 °C; for `Nc1cccc(C(=O)O)c1`, 173 to 175 °C. For `O=C(O)C(F)(F)C(F)(F)C(F)(F)F` the value was -18 to -17.5 °C; for `CC(=O)Nc1ccccc1C(=O)O`, 184 to 186 °C; for `O=C(O)c1ccc([N+](=O)[O-])cc1`, 237 to 242 °C. As for `O=C(Oc1ccc2ccccc2c1)c1ccccc1`, the melting point was 105 to 107 °C. Then `CC(C)CBr`, with -119 to -117 °C; and `O=C1C=C(Cl)C(=O)C=C1Cl`, with 160 to 162 °C; and `Clc1cc(Cl)nc(Cl)n1`, with 22.5 to 23 °C.

`NC=O` yielded a melting point of 2 to 2.55 °C. Then `CCOC(=O)C(O)(c1ccccc1)c1ccccc1`, with 30 to 34 °C; and `C=CCC(C(=O)O)C(=O)O`, with 104 to 105 °C; and `CCc1ccc2c(c1)C(=O)c1ccccc1C2=O`, with 109 to 110 °C.

Regarding `COC(=O)c1c[nH]c2ccccc12`, the melting point was in the range of 150 to 151 °C. For `C=CCCCCC(=O)O` the value was -6.5 to -6 °C. Then `OCCN1CCCCC1`, with 16 to 17.9 °C; and `CCCC(C)=C(C)C`, with -115 °C.

In the case of `CC1CC=CC1`, the melting point is -161 °C. Then `COC(=O)C(=O)OC`, with 52 to 54.3 °C; and `CCCCCCCCCCCC(=O)CCCCCCCCCCC`, with 67 to 70.2 °C; and `Cc1ccc(C(C)C)cc2c(C)ccc1-2`, with 31.5 to 32 °C. Then `O=C(O)C12CC3CC(CC(C3)C1)C2`, with 174 to 175 °C. As to `CCCl`, the melting point is -139 °C. For `O=C1CCC(=O)N1Cl`, the melting point fell in the range of 148 to 150 °C. As for `COc1ccccc1OC(=O)c1ccccc1`, the melting point is 57.5 to 59 °C.

Molecule `CC(C(=O)O)(c1ccccc1)c1ccccc1` registered a melting point of 173 to 176 °C.

With `Oc1ccncc1`, the melting point fell in the range of 145 to 150 °C. Then `Nc1ccccc1[N+](=O)[O-]`, with 71 to 73 °C; and `Nc1ccc(C(=O)NCC(=O)O)cc1`, with 198 to 200 °C. Then `OCCN1CCOCC1`, with -1.6 to 2 °C; and `COc1ccc(CC(=O)O)cc1OC`, with 97 to 98 °C; and `CCCSSCCC`, with -86 to -85.6 °C. For `COc1cccc(OC)c1C` the value was 39 to 40 °C; for `O=C1OC(=O)C2C3C=CC(C3)C12` (configuration not stated), 164 to 166 °C; for `O=C(O)C1CSCN1` (configuration not stated), 195 to 196 °C. As to `CC(N)=S`, the melting point was in the range of 112 to 116 °C.

Consider `c1ccc(-c2ccnc3c2ccc2c(-c4ccccc4)ccnc23)cc1`, for which the melting point fell in the range of 218 to 220 °C.

In turn, `Cc1ccc([N+](=O)[O-])c(F)c1` came in with a melting point of 53 to 53.2 °C. Then `Cc1ccc(CN)cc1`, with 12 to 12.5 °C; and `OC1CCCCCCCCCCC1`, with 76 to 78 °C. For `O=Cc1cc(Cl)cc(Cl)c1` the value was 63 to 68 °C. Then `Cc1ccc2cccc([N+](=O)[O-])c2n1`, with 138 to 140 °C; and `CCCCCCCCC(=O)Cl`, with -61 to -60.5 °C. Turning to `CCNc1ccccc1`, the melting point is -64 to -63 °C.

Regarding `Brc1ccccc1`, the melting point was -31 to -30.6 °C. Then `CC(C)C(Br)C(=O)O` (configuration not stated), with 39 to 44 °C. As to `CC(C)=O`, the melting point is -95 to -94 °C. With `Cc1ccc(C)o1`, the melting point is -62.8 to -62 °C. For `Ic1ccccc1` the value was -31.3 to -31 °C; for `O=C=Nc1ccc(N=C=O)cc1`, 94 to 97.5 °C; for `CCCCSC`, -98 to -97.8 °C. Then `O=[N+]([O-])c1cccc2c([N+](=O)[O-])cccc12`, with 216 to 219 °C. Regarding `CCOc1ccc(C(C)=O)cc1`, the melting point is 37 to 39 °C.

In the case of `Clc1ccc(Cl)s1`, the melting point was -41 to -40.5 °C.

In turn, `Clc1ccc(C(c2ccc(Cl)cc2)C(Cl)(Cl)Cl)cc1` had a melting point of 108 to 110 °C. For `S=C1NCCS1` the value was 105 to 106 °C; for `CC(=O)Nc1ccccc1`, 114 to 115 °C. For `CC(=O)/C=C/c1ccccc1` the value was 40 to 42 °C. Then `CS(=O)c1ccccc1` (configuration not stated), with 29 to 32 °C; and `CCOC(=O)C(C)(C)C`, with -90 to -89.5 °C. `O=C(Nc1ccccc1)c1ccccc1O` returned a melting point of 136 to 137 °C. Then `CC(=O)c1cccs1`, with 10 to 10.5 °C; and `Cc1ccc(C(=O)O)c(O)c1`, with 177 to 178 °C; and `C1COCCO1`, with 11.8 to 12 °C. With `OCCOc1ccc2ccccc2c1`, the melting point lay within 74 to 76.7 °C. For `Brc1ccccc1Br` the value was 5 to 7.1 °C.
